Tests used:
[1] = system: dermal fibroblasts; assay: MTT cell viability and proliferation, dermal fibroblasts; type: cell-based, human
From the text: A normal adult skin biopsy (6 mm) was obtained (n=1), with informed consent, from an individual attending the Oral Surgery Clinic, School of Dentistry, Wales College of Medicine, Cardiff. Following the application of a local anaesthetic, the dermal biopsy was collected and adult dermal fibroblast cultures established by single cell suspension technique, following enzymic degradation of the specimen. This technique has previously been reliably used to establish viable primary cultures of both oral and dermal fibroblasts in vitro (Cook et al, 2000; Stephens et al, 2001; 2003). Dermal fibroblasts were cultured in Fibroblast-Serum Containing Medium, containing Dulbecco's Modified Eagle's Medium (DMEM), supplemented with L-glutamine (2 mM), antibiotics (100 U/ml penicillin G sodium, […] streptomycin sulphate and 0.25 μg/ml amphotericin B) and 10% fetal calf serum (all purchased from Invitrogen Ltd., Paisley, U.K.). Dermal fibroblast cultures were maintained at 37° C., in a 5% CO2/95% air atmosphere, with the culture medium being changed every 2-3 days. Dermal fibroblasts were used between passage 7-17, for all experiments.
Prior to use, the PEP005/DMSO stock solution was removed from 4° C. storage and warmed to room temperature. The required volumes of PEP005/DMSO were aliquoted into a poly-propylene vessel and the PEP005/DMSO diluted to the required concentration (typically 0.01 μg/ml, 0.1 μg/ml, 1 μg/ml, 10 μg/ml and […]) in Fibroblast-Serum Containing Medium (for dermal fibroblast cultures) or serum-free, EpiLife® Medium (for epidermal keratinocyte cultures), with fresh PEP005/culture medium solutions being prepared daily, at the various concentrations above, due to solution stability. Prior to discarding PEP005/culture medium solutions, at least two volumes of 0.1% sodium hydroxide (Sigma Chemical Co.), in 95% ethanol/5% methanol (both from Fisher Scientific, Leicestershire, U.K.), was added to each solution, to decontaminate.
The MTT [3-(4,5-dimethyl-2-thiazolyl)-2,5-diphenyltetrazolium bromide] dye-reduction assay was employed for the assessment of dermal fibroblast and epidermal keratinocyte cell viability and proliferation, according to Cook et al (2000). Following trypzinisation, dermal fibroblast or epidermal keratinocyte were seeded in 96-well microtitre plates (VWR International Ltd., Leicestershire, U.K.), at a cell density of 2.5×10^3 cell/well and 5×10^3 cell/well, respectively. Following cell seeding for 24 h and 48 h, respectively, the dermal fibroblast and epidermal keratinocyte culture medium were replaced with culture medium (100 μl/well), containing 0, 0.01 μg/ml, 0.1 μg/ml, 1 μg/ml, 10 μg/ml or 100 μg/ml PEP005 (six culture wells per PEP005 concentration). […]

[2] = system: epidermal keratinocytes; assay: Keratinocyte extracellular matrix attachment; type: cell-based, human
Description: Human, adult, epidermal keratinocytes, were purchased cryopreserved from Cascade Biologics Inc., Nottinghamshire, U.K. These cells (>500,000 viable cells/vial) were tested to be >70% viable, with the capacity to proliferate for at least 16 population doublings. The epidermal keratinocytes were cultured in serum-free, EpiLife® Medium (Cascade Biologics Inc.), supplemented with antibiotics (100 U/ml penicillin G sodium, […] streptomycin sulphate and 0.25 μg/ml amphotericin B) and EpiLife® Defined Growth Supplement (EDGS, consisting of purified bovine serum albumin, purified bovine transferring, hydrocortisone, recombinant human insulin-like growth factor type-1, prostaglandin E2 and recombinant human epidermal growth factor, Cascade Biologics Inc.). Epidermal keratinocytes cultures were maintained at 37° C., in a 5% CO2/95% air atmosphere, with the culture medium being changed every 2-3 days. Epidermal keratinocytes were used between 4-6 passages, for all experiments.
Prior to use, the PEP005/DMSO stock solution was removed from 4° C. storage and warmed to room temperature. […]

C/C=C(/C)C(=O)O[C@H]1C(C)=C[C@]23C(=O)[C@@H](C=C(CO)[C@@H](O)[C@]12O)[C@H]1[C@@H](C[C@H]3C)C1(C)C [PEP005, ingenol-3-angelate]
dermal fibroblast cell viability/proliferation (MTT) ([1]; 0.01 μg/ml PEP005, day 7): appeared to stimulate cell viability/proliferation
dermal fibroblast cell viability/proliferation (MTT) ([1]; 0.1 μg/ml PEP005, day 7): appeared to stimulate cell viability/proliferation
dermal fibroblast cell viability/proliferation (MTT) ([1]; 10 μg/ml PEP005, days 1, 3 and 5): stimulatory effect
dermal fibroblast cell viability/proliferation (MTT) ([1]; 100 μg/ml PEP005, compared to untreated fibroblast controls): cytotoxic effect
epidermal keratinocyte attachment to type I collagen ([2]; 0, 01-10 μg/ml PEP005): significant dose-dependent stimulation
epidermal keratinocyte attachment to plasma fibronectin ([2]; 1-μg/ml PEP005): trend towards a possible stimulation

— patent publication US20090215884A1, “METHOD FOR WOUND HEALING” (priority 2005, published 2009)
